Measured values: publication PMC8058344, “ARIH1 signaling promotes anti-tumor immunity by targeting PD-L1 for proteasomal degradation” (Nature Communications, 2021)
Values joined by “and” are separate entries in the source; they are usually repeats but may differ in a detail not shown here. Equal entries are not always repeated. Each block holds one compound with its values, some of them ahead of it. Residues, ends and D or L forms follow the SMILES beside them. *: point of attachment. Cbz = O=C(OCc1ccccc1)*

Key:
[1] = system: PD-L1 in U937 cells; test: PD-L1 levels in U937 cells by western blotting and flow cytometry; format: cell-based, human
Method: (§1) Fig. 1 EGFR inhibitors were screened to reduce membrane PD-L1 levels. a High-throughput screening of 2125 FDA-approved drugs or drug candidates. U937 cells were incubated with IFNγ (100 ng/mL) for 48 h, treated with the drugs at 10 μM for 12 h. Ruxolitinib (Rux) was used as a positive control. The hit compounds that induced the decrease of PD-L1 levels are shown in blue. The depth of blue represents decreased level of PD-L1. The heatmap represents the targeted pathways obtained from the high-throughput screening, based upon decreased membrane PD-L1 level detected by flow cytometry. b Immunoblotting of PD-L1 in U937 cells treated with ES-072 (ES) or AZD9291 (AZD) at indicated concentrations for 12 h. ES and AZD are EGFR inhibitors. c, d Median fluorescence intensity (MFI) (c) and relative quantification (d) of PD-L1 in U937 cells treated with 10 μM ES-072 or 10 μM AZD9291 for 12 h. Data represent means ± SEM, n = 18, 6 independent repeats, ****P < 0.0001. e–g Immunoblotting (e, f) and flow cytometry (g) analysis of PD-L1 levels in U937 cells treated with 10 μM ES-072 or 10 μM AZD9291 for the indicated times. h, i Immunoblottings (h) of PD-L1 and β-TrCP, relative quantification (i) of PD-L1 MFI in H1975 cells transfected with non-targeting siRNA (si-CTRL) or β-TrCP siRNAs (si-β-TrCP) and treated with or without 10 μM ES-072/AZD9291 for 12 h. Data represent means ± SEM, n = 9, 3 independent repeats, NS: no significant; ****P < 0.0001. j–l Immunoblotting (j) and flow cytometry analysis (k) with relative quantification (l) of PD-L1 in H1975 cells treated with 10 μM ES-072 or AZD9291, and/or 5 μM LY2090314 (LY) for 12 h. LY is a GSK3 inhibitor. […]
For western blot analysis, cells were collected and washed with PBS, then lysed in radioimmunoprecipitation assay (RIPA) buffer (1% Triton X-100, 100 mM Tris-HCl pH 8.8, 100 mM NaCl, 0.5 mM EDTA). […] The supernatant was collected and the protein concentration was measured by bicinchoninic acid reaction. […] Signals were detected using chemiluminescence reagents (#4AW001-500, 4A649 Biotech, Co.). […]

[2] = system: PD-L1 in H1975 cells; test: PD-L1 levels in H1975 cells by immunoblotting and flow cytometry; format: cell-based, human
Method: as §1, with “h.” for “h. LY is a GSK3 inhibitor.”
Fig. 5 GSK3α-mediated phosphorylation of PD-L1 promotes PD-L1-ARIH1 interaction and ARIH1-induced degradation. a Co-IP analysis for the interaction of K48-ubiquitin, ARIH1 (HA), and PD-L1 in HEK293T cells transfected with HA-ARIH1 and Flag-PD-L1 (WT, S279A, S283A, or 2SA), treated with MG132 (10 μM) for 6 h; HA-tagged empty vector (HA-EV) was transfected as a negative control. b Co-IP analysis for the interaction of ARIH1 and PD-L1 in HEK293T cells transfected with HA-ARIH1 and Flag-PD-L1 (WT or 2SA), treated with 10 μM ES-072 for 24 h, Flag-tagged empty vector (Flag-EV) was transfected as a negative control. c HEK293T cells were transfected with Flag-PD-L1. Co-IP analysis for the interaction of ubiquitin and PD-L1 in HEK293T cells transfected with ARIH1-siRNAs or HA-GSK3α and treated with MG132 (10 μM) for 6 h; non-targeting siRNA (si-CTRL) was transfected as a negative control. d Immunoblots of PD-L1 and ARIH1 (HA) in H1975 cells transfected with HA-ARIH1, treated with or without 5 μM LY for 6 h. e, f MFI (e) and relative quantification (f) of PD-L1 in HA-ARIH1-overexpressed H1975 cells, treated with or without 5 μM LY for 6 h. […]

[3] = target: GSK3α (Homo sapiens, UniProt P49840); test: In vitro kinase specificity profiling for GSK3α; format: biochemical
Sequence of GSK3α (P49840 whole entry): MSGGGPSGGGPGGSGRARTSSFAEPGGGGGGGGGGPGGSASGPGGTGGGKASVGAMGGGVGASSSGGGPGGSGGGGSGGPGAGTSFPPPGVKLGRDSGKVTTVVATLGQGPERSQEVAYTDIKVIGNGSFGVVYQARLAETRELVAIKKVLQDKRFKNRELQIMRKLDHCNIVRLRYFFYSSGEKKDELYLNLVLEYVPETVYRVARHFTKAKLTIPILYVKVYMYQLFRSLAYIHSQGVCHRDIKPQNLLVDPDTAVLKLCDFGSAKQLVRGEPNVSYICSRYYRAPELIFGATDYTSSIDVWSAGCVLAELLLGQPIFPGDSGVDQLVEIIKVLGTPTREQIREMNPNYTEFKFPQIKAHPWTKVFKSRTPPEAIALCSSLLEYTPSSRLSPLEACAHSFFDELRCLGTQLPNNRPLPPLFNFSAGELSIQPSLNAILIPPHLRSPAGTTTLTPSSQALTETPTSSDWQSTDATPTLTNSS

Compound: C=CC(=O)Nc1cc(Nc2nccc(-c3cn(C)c4ccccc34)n2)c(OC)cc1N(C)CCN(C)C [AZD9291, Osimertinib]
IFNγ-induced membranal PD-L1 levels ([1]; western blotting and flow cytometry, 10 μM, 12 h): dramatically reduced

IC50 ([3]; single independent tests): 0.98 nM and 0.81 nM and 0.84 nM
IC50 ([3]; value with spread given in main text): 0.87 ± 0.09 nM
Compound: O=C1NC(=O)C(c2cnc3ccccn23)=C1c1cn2c3c(cc(F)cc13)CN(C(=O)N1CCCCC1)CC2 [LY2090314]
ARIH1-overexpression-induced degradation of PD-L1 ([2]; H1975 cells transfected with HA-ARIH1, 5 μM LY for 6 h): rescued
reduction of PD-L1 levels induced following EGFR inhibition ([2]; H1975 cells, 5 μM LY2090314 with 10 μM ES-072 or AZD9291, 12 h): did block this reduction

Compound: CC(C)C[C@@H](C=O)NC(=O)[C@H](CC(C)C)NC(=O)[C@H](CC(C)C)NC(=O)OCc1ccccc1 [MG132] (Cbz-Leu-Leu-Leu-aldehyde)
decrease in the PD-L1 levels induced by ES-072 ([2]; H1975 cells, 10 μM ES-072 and 10 μM MG132 for 6 h): rescued

Compound: N#CC[C@H](C1CCCC1)n1cc(-c2ncnc3[nH]ccc23)cn1 [Ruxolitinib]
IFNγ-induced PD-L1 levels ([1]; 100 ng/mL IFNγ 48 h, 10 μM Ruxolitinib 12 h): blocked
